Data: patent US6903098B1, “Use of phthalazine derivatives” (Abbott GmbH & Co., priority 1999, dated 2005)

System: PARP 1
Assay: HTRF assay for PARP 1 inhibitory effect
Type: biochemical, human or bovine
Conditions: at 10 μM
Text: In the HTRF PARP assay according to the invention, histones, as target proteins for modification by PARP, are labeled indirectly with an XL665 fluorophore. The antibody is labeled directly with a europium cryptate. If the XL665 fluorophore is in the direct vicinity in space, which is ensured by binding to the poly(ADP-ribose) on the histone, then an energy transfer is possible. The emission at 665 nm is thus directly proportional to the amount of bound antibody, which in turn is equivalent to the amount of poly(ADP-ribose). The measured signal thus corresponds to the PARP activity. The principle of measurement is depicted diagrammatically in FIG. 7. The materials used are identical to those used in the ELISA (see above) unless expressly stated.
Histones were dissolved in a concentration of 3 mg/ml in Hepes buffer (50 mM, pH=7.5). Biotinylation took place with sulfo-NHS-LC-biotin (Pierce, #21335T). A molar ratio of 4 biotin per histone was used. The incubation time was 90 minutes (RT). The biotinylated histones were then purified on a G25 SF HR10/10 column (Pharmacia, 17-0591-01) in Hepes buffer (50 mM, pH=7.0) in order to remove excess biotinylation reagent. […]
Measurement was then possible after 30 minutes (up to 4 hours). […] The Ki values were calculated as described for the ELISA. […]

In the case of `O=c1[nH]nc(CN2CCN(c3ccccc3)CC2)c2ccccc12` [4-(4-phenylpiperazin-1-yl)methyl-2H-phthalazin-1-one], the “inhibition of PARP 1” value is reported as 38%.
